From ChEMBL document CHEMBL5729382, “Inhibitors of cysteine proteases and methods of use thereof” (2022)

Test: Evaluation of Antiviral Activity of Compounds Against Human Coronavirus (HCov) 229E: Compounds were assayed using standard methods against multiple coronaviral strains, including HCoV 229E and OC43 strains. […] The antiviral activity of compounds was calculated based on the protection of the virus-induced CPE at each concentration normalized by the virus control.

Structure (SMILES) | IC50
N#CC1(NC(=O)[C@@H](CC2CC2)NC(=O)OCc2ccccc2)C[C@H]2CC[C@@H]1[C@H]1C(=O)NC(=O)[C@@H]21 (single isomer, unassigned; isomer 1) | > 30 µM
COc1cccc2[nH]c(C(=O)N[C@H](CC3CC3)C(=O)N[C@@]3(C#N)CC4CCC3[C@H]3C(=O)NC(=O)[C@@H]43)cc12 (single isomer, unassigned; isomer 1) | > 30 µM
